# Experimental data from ChEMBL document CHEMBL1201862, “PubChem BioAssay data set” (2004).
#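 Following 48 hours of exposure in 96-well plates, responses at five concentrations were used to interpolate endpoints linearly. The concentration for 50% growth inhibition is given as GI50.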 Active and inactive are the calls of the source. Rule as the data show it: active = GI50 up to about 1.1 µM and inactive = higher.
# Experiments:
# Test in all cases: inhibition of tumour cell growth, NCI panel, 48 h
# LOX IMVI = test system: LOX IMVI
# OVCAR-4 = test system: OVCAR-4
# SF-268 = test system: SF-268
# MDA-MB-231 = test system: MDA-MB-231
# IGROV-1 = test system: IGROV-1
# CCRF-CEM = test system: CCRF-CEM
# SK-MEL-2 = test system: SK-MEL-2
# RPMI-8226 = test system: RPMI-8226
# HCT-116 = test system: HCT-116
# DU-145 = test system: DU-145
# OVCAR-8 = test system: OVCAR-8
# 786-0 = test system: 786-0
# COLO 205 = test system: COLO 205
# CAKI-1 = test system: CAKI-1
# SF-539 = test system: SF-539
# HL-60 = test system: HL-60
# NCI/ADR-RES = test system: NCI/ADR-RES
# UACC-62 = test system: UACC-62
# SK-OV-3 = test system: SK-OV-3
# MCF7 = test system: MCF7
# T47D = test system: T47D
# Malme-3M = test system: Malme-3M
# HCC 2998 = test system: HCC 2998
# M14 = test system: M14
# TK-10 = test system: TK-10
# HT-29 = test system: HT-29
# UO-31 = test system: UO-31
# SW-620 = test system: SW-620
# HOP-62 = test system: HOP-62
# HOP-92 = test system: HOP-92
# MDA-N = test system: MDA-N
# RXF 393 = test system: RXF 393
# MDA-MB-435 = test system: MDA-MB-435
# ACHN = test system: ACHN
# PC-3 = test system: PC-3
# MOLT-4 = test system: MOLT-4
# NCI-H226 = test system: NCI-H226
# NCI-H522 = test system: NCI-H522
# NCI-H23 = test system: NCI-H23
# EKVX = test system: EKVX
# OVCAR-5 = test system: OVCAR-5
# SN12C = test system: SN12C
# Hs-578T = test system: Hs-578T
# SK-MEL-5 = test system: SK-MEL-5
# A549 = test system: A549
# KM12 = test system: KM12
# SF-295 = test system: SF-295
# OVCAR-3 = test system: OVCAR-3
# SNB-19 = test system: SNB-19
# BT-549 = test system: BT-549
# UACC-257 = test system: UACC-257
# K562 = test system: K562
# NCI-H460 = test system: NCI-H460
# HCT-15 = test system: HCT-15
# U-251 = test system: U-251
# A498 = test system: A498
# SR = test system: SR
compound,measurement,setting,value
[B].c1ccc([Si](OCCN2CC2)(c2ccccc2)c2ccccc2)cc1,GI50,LOX IMVI,14.5 µM (inactive)
same,GI50,OVCAR-4,10.8 µM (inactive)
same,GI50,SF-268,11 µM (inactive)
same,GI50,MDA-MB-231,14.9 µM (inactive)
same,GI50,IGROV-1,12.9 µM (inactive)
same,GI50,CCRF-CEM,18.7 µM (inactive)
same,GI50,SK-MEL-2,0.557 µM (active)
same,GI50,RPMI-8226,13.9 µM (inactive)
same,GI50,HCT-116,14.6 µM (inactive)
same,GI50,DU-145,13.7 µM (inactive)
same,GI50,OVCAR-8,16.6 µM (inactive)
same,GI50,786-0,14.2 µM (inactive)
same,GI50,COLO 205,12.2 µM (inactive)
same,GI50,CAKI-1,16.3 µM (inactive)
same,GI50,SF-539,14 µM (inactive)
same,GI50,HL-60,27.1 µM (inactive)
same,GI50,NCI/ADR-RES,14.1 µM (inactive)
same,GI50,UACC-62,14.2 µM (inactive)
same,GI50,SK-OV-3,14.4 µM (inactive)
same,GI50,MCF7,14.5 µM (inactive)
same,GI50,T47D,15.6 µM (inactive)
same,GI50,Malme-3M,14.9 µM (inactive)
same,GI50,HCC 2998,13.6 µM (inactive)
same,GI50,M14,15.9 µM (inactive)
same,GI50,TK-10,15.5 µM (inactive)
same,GI50,HT-29,14 µM (inactive)
same,GI50,UO-31,15.2 µM (inactive)
same,GI50,SW-620,14.7 µM (inactive)
same,GI50,HOP-62,14.9 µM (inactive)
same,GI50,HOP-92,2.36 µM (inactive)
same,GI50,MDA-N,14.9 µM (inactive)
same,GI50,RXF 393,4.46 µM (inactive)
same,GI50,MDA-MB-435,13.8 µM (inactive)
same,GI50,ACHN,14.8 µM (inactive)
same,GI50,PC-3,13.5 µM (inactive)
same,GI50,MOLT-4,14.3 µM (inactive)
same,GI50,NCI-H226,16 µM (inactive)
same,GI50,NCI-H522,12.9 µM (inactive)
same,GI50,NCI-H23,15.6 µM (inactive)
same,GI50,EKVX,12.8 µM (inactive)
same,GI50,OVCAR-5,14.6 µM (inactive)
same,GI50,SN12C,14.3 µM (inactive)
same,GI50,Hs-578T,12.4 µM (inactive)
same,GI50,SK-MEL-5,15.8 µM (inactive)
same,GI50,A549,11.9 µM (inactive)
same,GI50,KM12,15.6 µM (inactive)
same,GI50,SF-295,14.3 µM (inactive)
same,GI50,OVCAR-3,16.4 µM (inactive)
same,GI50,SNB-19,0.436 µM (active)
same,GI50,BT-549,17.5 µM (inactive)
same,GI50,UACC-257,15.3 µM (inactive)
same,GI50,K562,8.3 µM (inactive)
same,GI50,NCI-H460,12.5 µM (inactive)
same,GI50,HCT-15,7.66 µM
same,GI50,U-251,14 µM (inactive)
COc1ccc2c3c(c4cc(OC)c(OC)cc4c2c1)CN1CCC[C@H]1[C@@H]3O [TYLOPHORININE],GI50,LOX IMVI,< 0.01 µM (active)
same,GI50,OVCAR-4,0.224 µM (active)
same,GI50,SF-268,< 0.0453 µM (active)
same,GI50,MDA-MB-231,< 0.0489 µM (active)
same,GI50,IGROV-1,< 0.0508 µM (active)
same,GI50,CCRF-CEM,< 0.0359 µM (active)
same,GI50,RPMI-8226,0.0676 µM (active)
same,GI50,HCT-116,< 0.0445 µM (active)
same,GI50,COLO 205,0.039 µM (active)
same,GI50,SF-539,0.253 µM (active)
same,GI50,NCI/ADR-RES,0.36 µM (active)
same,GI50,UACC-62,< 0.0482 µM (active)
same,GI50,A498,< 0.0494 µM (active)
same,GI50,SK-OV-3,0.0733 µM (active)
same,GI50,T47D,< 0.0404 µM (active)
same,GI50,Malme-3M,0.249 µM (active)
same,GI50,HT-29,< 0.0289 µM (active)
same,GI50,MDA-N,< 0.0404 µM (active)
same,GI50,MOLT-4,< 0.0318 µM (active)
same,GI50,NCI-H226,0.27 µM (active)
same,GI50,NCI-H522,0.29 µM (active)
same,GI50,EKVX,< 0.01 µM (active)
same,GI50,SN12C,< 0.0201 µM (active)
same,GI50,Hs-578T,< 0.0441 µM (active)
same,GI50,KM12,< 0.0371 µM (active)
same,GI50,SF-295,0.05 µM (active)
same,GI50,SNB-19,< 0.01 µM (active)
same,GI50,BT-549,0.493 µM (active)
same,GI50,K562,0.0422 µM (active)
same,GI50,NCI-H460,< 0.0474 µM (active)
same,GI50,SR,< 0.0443 µM (active)
